Data published in ChEMBL document CHEMBL5465560, “Selectivity Literature for EUbOPEN Chemogenomic Library” (2024).

Assays:
[1] = target: Serine/threonine-protein kinase 38-like (Homo sapiens) (UniProt Q9Y2H1); experiment: Selectivity interaction (LanthaScreen Eu Kinase Binding Assay) EUB0001632a STK38L; details: at 10 µM
[2] = target: Dual specificity tyrosine-phosphorylation-regulated kinase 1A (Homo sapiens, UniProt Q13627); experiment: Selectivity interaction (SelectScreen profiling (Invitrogen)) EUB0000607a DYRK1A; details: at 2 µM
[3] = target: Ephrin type-A receptor 7 (Homo sapiens) (UniProt Q15375); experiment: Selectivity interaction (KinomeScan (DiscoverX)) EUB0000607a EPHA7; details: at 10 µM
Ephrin type-A receptor 7 (Homo sapiens), sequence (Q15375 28-998 limits assumed): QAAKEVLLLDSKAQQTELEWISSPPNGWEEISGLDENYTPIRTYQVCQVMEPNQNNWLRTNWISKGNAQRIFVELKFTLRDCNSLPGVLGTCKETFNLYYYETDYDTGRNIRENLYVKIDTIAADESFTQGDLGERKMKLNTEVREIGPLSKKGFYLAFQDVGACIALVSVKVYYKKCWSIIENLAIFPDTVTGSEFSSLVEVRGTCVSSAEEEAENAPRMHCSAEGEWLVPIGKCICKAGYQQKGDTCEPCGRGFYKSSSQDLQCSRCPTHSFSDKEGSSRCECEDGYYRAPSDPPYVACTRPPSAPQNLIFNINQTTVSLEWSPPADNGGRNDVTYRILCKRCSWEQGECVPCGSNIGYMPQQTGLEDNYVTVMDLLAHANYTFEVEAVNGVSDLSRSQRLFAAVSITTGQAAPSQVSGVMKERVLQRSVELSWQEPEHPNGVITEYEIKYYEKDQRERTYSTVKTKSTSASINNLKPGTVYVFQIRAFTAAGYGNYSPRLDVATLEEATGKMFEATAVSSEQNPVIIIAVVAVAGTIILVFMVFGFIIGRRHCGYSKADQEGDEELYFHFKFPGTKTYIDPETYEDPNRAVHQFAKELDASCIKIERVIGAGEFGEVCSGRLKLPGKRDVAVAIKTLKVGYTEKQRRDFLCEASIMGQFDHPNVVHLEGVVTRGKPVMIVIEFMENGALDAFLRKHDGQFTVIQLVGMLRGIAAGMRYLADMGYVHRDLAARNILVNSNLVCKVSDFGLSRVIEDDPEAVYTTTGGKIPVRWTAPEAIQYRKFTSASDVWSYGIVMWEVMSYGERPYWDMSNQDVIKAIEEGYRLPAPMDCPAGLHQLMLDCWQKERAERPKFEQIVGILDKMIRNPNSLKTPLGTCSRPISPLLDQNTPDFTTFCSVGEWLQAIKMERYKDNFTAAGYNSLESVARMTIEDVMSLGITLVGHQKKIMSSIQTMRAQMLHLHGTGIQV

Focal adhesion kinase 1 = Focal adhesion kinase 1 (Homo sapiens, UniProt Q05397); details: at 10 µM
Focal adhesion kinase 1, sequence (Q05397 2-1052 limits assumed): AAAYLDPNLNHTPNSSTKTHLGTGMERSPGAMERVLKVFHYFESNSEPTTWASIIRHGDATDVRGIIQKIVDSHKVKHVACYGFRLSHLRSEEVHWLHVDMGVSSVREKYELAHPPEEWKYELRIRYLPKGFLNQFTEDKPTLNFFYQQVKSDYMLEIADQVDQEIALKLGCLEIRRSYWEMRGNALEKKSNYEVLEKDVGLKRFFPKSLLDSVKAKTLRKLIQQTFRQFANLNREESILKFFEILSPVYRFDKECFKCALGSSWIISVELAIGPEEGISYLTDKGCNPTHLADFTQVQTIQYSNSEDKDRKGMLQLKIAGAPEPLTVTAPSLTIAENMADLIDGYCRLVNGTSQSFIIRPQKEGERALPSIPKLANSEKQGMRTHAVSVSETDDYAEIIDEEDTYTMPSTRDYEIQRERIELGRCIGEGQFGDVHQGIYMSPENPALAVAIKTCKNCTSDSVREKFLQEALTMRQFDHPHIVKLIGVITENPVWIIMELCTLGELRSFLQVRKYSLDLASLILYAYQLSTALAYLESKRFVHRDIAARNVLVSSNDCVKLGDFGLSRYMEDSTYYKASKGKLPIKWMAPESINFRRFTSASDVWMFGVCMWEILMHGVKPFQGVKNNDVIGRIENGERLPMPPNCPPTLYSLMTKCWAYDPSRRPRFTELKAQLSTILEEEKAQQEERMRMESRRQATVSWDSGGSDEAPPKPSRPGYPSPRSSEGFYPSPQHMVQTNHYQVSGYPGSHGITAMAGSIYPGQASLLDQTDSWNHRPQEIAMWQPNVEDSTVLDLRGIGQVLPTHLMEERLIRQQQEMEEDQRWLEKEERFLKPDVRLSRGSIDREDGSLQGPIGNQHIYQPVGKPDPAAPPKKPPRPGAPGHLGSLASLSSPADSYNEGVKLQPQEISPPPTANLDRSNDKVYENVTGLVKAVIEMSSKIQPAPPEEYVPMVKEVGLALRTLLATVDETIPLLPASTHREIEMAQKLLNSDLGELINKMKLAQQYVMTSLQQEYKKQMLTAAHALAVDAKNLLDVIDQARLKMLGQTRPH

[4] = target: Ribosomal protein S6 kinase alpha-3 (Homo sapiens, UniProt P51812); experiment: Selectivity interaction (ActivX KiNativ screen (kinase selectivity in THP-1 cell lysates)) EUB0000639a RPS6KA3; format: subcellular; details: lysate, at 5 µM
Ribosomal protein S6 kinase alpha-3, sequence (P51812 whole entry): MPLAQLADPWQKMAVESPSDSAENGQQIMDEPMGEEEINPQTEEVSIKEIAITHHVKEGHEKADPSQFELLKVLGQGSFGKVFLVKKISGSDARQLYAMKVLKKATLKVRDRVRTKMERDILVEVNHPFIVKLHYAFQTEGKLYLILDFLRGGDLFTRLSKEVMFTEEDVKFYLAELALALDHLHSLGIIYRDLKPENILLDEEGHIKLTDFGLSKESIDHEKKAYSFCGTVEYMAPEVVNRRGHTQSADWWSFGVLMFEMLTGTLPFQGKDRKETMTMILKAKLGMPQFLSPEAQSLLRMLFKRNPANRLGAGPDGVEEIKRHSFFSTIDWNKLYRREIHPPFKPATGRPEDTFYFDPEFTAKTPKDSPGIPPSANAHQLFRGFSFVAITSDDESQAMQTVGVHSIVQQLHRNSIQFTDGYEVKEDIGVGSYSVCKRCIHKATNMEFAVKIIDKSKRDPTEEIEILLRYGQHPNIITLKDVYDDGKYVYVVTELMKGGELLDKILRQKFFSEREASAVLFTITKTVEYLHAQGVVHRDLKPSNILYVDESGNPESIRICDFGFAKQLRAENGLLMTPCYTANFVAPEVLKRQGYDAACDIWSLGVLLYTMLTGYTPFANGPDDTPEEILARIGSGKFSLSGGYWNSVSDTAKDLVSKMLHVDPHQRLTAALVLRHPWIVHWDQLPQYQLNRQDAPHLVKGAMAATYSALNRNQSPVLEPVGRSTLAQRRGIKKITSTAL

[5] = target: Serine/threonine-protein kinase tousled-like 2 (Homo sapiens) (UniProt Q86UE8); experiment: Selectivity interaction (ActivX KiNativ screen (kinase selectivity in THP-1 cell lysates)) EUB0000639a TLK2; format: subcellular; details: lysate
Serine/threonine-protein kinase tousled-like 2 (Homo sapiens), sequence (Q86UE8 whole entry, looked up): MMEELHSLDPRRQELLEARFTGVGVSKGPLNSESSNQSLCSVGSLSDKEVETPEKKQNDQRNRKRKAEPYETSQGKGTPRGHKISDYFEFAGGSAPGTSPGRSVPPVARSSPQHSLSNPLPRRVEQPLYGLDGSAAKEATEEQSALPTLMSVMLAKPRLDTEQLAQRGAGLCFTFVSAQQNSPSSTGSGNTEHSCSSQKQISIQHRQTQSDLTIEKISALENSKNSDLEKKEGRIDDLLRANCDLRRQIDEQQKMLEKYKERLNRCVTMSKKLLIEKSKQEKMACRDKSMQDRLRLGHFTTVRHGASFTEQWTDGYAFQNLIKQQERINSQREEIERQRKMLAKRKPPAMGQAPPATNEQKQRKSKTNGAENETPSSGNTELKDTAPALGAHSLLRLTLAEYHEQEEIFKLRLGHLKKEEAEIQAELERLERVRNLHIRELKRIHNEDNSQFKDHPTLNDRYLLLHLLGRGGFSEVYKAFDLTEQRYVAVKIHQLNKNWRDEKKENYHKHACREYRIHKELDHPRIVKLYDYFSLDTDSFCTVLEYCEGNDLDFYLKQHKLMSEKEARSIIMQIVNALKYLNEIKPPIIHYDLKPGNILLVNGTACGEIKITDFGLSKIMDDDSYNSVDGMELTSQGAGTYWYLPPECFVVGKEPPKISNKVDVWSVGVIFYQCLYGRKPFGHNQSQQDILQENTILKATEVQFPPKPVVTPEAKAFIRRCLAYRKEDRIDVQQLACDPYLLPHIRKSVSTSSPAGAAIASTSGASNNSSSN

[6] = target: Myosin light chain kinase, smooth muscle (Homo sapiens, UniProt Q15746); experiment: Selectivity interaction (KinomeScan (DiscoverX)) EUB0000695a MYLK; details: at 100 nM
[7] = target: T1, Myosin light chain kinase family member 4 (Homo sapiens) (UniProt Q86YV6); experiment: Selectivity interaction (KinomeScan (DiscoverX)) EUB0000695a MYLK4; details: at 100 nM
T1 sequence (whole entry): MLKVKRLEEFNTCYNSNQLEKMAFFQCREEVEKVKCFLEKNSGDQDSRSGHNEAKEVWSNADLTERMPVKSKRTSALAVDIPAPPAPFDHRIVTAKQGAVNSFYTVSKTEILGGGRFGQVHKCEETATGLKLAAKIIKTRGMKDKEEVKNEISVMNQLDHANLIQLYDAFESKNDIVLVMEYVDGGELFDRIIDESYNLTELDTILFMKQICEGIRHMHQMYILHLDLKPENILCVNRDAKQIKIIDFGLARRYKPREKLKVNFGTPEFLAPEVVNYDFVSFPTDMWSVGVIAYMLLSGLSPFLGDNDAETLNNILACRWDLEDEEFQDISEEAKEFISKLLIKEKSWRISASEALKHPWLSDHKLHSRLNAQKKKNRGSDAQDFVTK

[8] = target: Protein arginine N-methyltransferase 5 (Homo sapiens, UniProt O14744); details: at 10 µM
Protein arginine N-methyltransferase 5, sequence (O14744 whole entry): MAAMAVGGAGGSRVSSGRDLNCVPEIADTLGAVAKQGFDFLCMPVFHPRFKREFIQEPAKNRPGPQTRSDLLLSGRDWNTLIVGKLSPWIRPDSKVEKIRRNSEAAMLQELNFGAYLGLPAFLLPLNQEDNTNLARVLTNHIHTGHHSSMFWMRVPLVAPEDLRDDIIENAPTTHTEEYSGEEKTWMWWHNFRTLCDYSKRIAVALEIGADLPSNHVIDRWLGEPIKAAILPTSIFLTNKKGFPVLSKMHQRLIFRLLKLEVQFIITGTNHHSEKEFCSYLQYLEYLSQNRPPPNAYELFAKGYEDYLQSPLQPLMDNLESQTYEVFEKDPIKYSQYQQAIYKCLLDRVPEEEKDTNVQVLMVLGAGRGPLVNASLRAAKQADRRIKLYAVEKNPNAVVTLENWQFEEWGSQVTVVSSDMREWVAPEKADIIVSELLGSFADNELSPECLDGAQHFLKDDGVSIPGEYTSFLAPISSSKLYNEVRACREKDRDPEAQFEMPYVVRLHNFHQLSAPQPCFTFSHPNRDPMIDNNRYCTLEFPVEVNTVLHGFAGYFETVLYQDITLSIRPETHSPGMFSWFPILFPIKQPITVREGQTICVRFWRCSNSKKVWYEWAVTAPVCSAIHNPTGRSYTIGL

[9] = target: Mitogen-activated protein kinase 10 (Homo sapiens, UniProt P53779); experiment: Selectivity interaction (KinomeScan (DiscoverX)) EUB0000229b MAPK10; details: at 10 µM
Mitogen-activated protein kinase 10, sequence (P53779 whole entry): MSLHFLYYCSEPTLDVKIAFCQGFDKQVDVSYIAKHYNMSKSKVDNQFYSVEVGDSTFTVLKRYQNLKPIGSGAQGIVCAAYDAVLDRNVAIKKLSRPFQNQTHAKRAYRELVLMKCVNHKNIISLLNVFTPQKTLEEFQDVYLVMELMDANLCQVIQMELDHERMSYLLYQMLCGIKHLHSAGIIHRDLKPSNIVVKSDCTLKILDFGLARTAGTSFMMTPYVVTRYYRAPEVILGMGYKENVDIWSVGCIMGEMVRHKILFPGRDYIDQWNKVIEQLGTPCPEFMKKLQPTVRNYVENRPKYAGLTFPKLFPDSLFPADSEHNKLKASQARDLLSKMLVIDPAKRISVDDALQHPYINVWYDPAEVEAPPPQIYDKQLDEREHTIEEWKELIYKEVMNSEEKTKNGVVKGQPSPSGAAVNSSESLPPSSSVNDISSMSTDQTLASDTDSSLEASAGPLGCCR

[10] = target: Cyclin-dependent kinase 7 (Homo sapiens, UniProt P50613); details: at 10 µM
Cyclin-dependent kinase 7, sequence (P50613 whole entry): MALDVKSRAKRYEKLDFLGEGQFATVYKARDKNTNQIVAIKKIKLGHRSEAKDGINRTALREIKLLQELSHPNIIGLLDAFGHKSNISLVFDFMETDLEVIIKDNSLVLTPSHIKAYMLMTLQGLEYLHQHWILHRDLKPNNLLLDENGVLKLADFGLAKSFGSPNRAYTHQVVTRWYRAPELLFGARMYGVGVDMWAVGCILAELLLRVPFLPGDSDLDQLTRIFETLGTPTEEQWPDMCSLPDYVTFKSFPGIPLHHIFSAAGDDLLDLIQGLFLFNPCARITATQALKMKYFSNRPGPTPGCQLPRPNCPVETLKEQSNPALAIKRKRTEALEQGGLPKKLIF

[11] = target: Ephrin type-A receptor 7 (Homo sapiens) (UniProt Q15375); experiment: Selectivity interaction (KinomeScan (DiscoverX)) EUB0000618a EPHA7; details: at 10 µM
[12] = target: T2, Serine/threonine-protein kinase Nek9 (Homo sapiens) (UniProt Q8TD19); experiment: Selectivity interaction (ActivX KiNativ screen (ex vivo kinase selectivity in human PBMCs)) EUB0001619a NEK9; format: cell-based; details: PBMC, at 1 µM
T2 sequence (whole entry): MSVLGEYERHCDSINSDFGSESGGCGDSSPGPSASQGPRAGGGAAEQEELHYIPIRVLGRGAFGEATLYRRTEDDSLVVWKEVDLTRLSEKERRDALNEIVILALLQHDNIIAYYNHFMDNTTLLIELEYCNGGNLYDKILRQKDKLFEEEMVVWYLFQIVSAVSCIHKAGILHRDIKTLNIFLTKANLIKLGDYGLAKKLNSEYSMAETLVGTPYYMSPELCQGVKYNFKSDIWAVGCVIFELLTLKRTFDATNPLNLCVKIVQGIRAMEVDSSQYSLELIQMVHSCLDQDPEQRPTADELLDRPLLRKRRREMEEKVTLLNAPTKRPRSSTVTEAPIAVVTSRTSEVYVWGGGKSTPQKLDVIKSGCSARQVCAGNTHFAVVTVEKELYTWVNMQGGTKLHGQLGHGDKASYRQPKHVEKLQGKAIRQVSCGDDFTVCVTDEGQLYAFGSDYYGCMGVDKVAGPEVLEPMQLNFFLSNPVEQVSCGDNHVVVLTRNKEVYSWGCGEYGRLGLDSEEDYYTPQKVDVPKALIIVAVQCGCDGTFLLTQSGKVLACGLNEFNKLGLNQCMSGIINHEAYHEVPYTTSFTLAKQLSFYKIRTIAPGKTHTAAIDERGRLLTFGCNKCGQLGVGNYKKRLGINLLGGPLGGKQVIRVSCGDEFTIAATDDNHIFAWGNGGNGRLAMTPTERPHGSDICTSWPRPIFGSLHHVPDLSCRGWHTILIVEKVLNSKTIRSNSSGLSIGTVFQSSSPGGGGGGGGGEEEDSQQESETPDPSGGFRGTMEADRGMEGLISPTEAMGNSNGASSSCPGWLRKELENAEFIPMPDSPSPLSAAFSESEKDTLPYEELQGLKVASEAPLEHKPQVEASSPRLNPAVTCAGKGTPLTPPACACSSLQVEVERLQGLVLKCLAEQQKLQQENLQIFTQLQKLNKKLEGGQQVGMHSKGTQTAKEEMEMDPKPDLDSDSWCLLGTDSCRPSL

## Cn1cc(-n2cnc3c(NCc4nc5cc(Cl)c(Cl)cc5[nH]4)nc(N4CCOCC4)nc32)cn1
[1]
  % of inhibition: -54.8%

## CNC(=O)Nc1ccc(-c2nc(N3CC4CCC(C3)O4)c3cnn(C4CCC5(CC4)OCCO5)c3n2)cc1
[2]
  % of inhibition: 2%
[3]
  % of control: 87%

## CCN(CC)CCCCNc1ncc2cc(-c3cc(OC)cc(OC)c3)c(NC(=O)NC(C)(C)C)nc2n1
Focal adhesion kinase 1
  % of control: 100%

## CC[C@@H]1[C@H](F)C(=O)N[C@@H]1COc1nccc2cc(C(N)=O)c(OC)cc12 [ZIMLOVISERTIB]
[4]
  % of inhibition: -3%
[5]; at 0.01 µM
  % of inhibition: 16.6%
[5]; at 0.04 µM
  % of inhibition: 2.6%
[5]; at 0.2 µM
  % of inhibition: 18.7%
[5]; at 1 µM
  % of inhibition: 46.3%
[5]; at 5 µM
  % of inhibition: 73.5%

## Cc1cc(F)c(C(=O)Nc2cccc(-c3nncn3C(C)C)n2)cc1-n1cnc(C2CC2)c1
[6]
  % of control: 100%
[7]
  % of control: 100%

## CNCCN1CCC(c2cc(CN(C)C(=O)c3cccc(Oc4ccccc4)c3)ccn2)CC1
[8]
  % activity: > 90%

## COc1cc(N(C)c2ccnc3ccc(C(F)(F)F)cc23)cc(OC)c1OC
[9]
  % binding: 88%

## Cc1cc([C@@H](C)Nc2ccccc2C(=O)O)c2nc(N3CCOCC3)cc(=O)n2c1 [AZD-6482]
[10]
  % of control: 97%

## O[C@H]1CC[C@H](Nc2ncc3nc(Nc4c(F)cc(F)cc4F)n([C@H]4CCOC4)c3n2)CC1
[11]
  % of control: 100%

## N#Cc1cccc(-c2c[nH]c3ncnc(N4CCOCC4)c23)c1
[12]
  % of inhibition: -31%
